The target of assay [1] is CDK2/cyclin A2 (Homo sapiens, UniProt P24941). The assay is described as follows: biochemical.
For assay [2], the system named is hepatocellular carcinoma (HepG-2) cell line. The experiment in a line: In vitro anti-proliferative activity, MTT assay, HepG-2. Type of assay: cell-based, human. Conditions: for IC50: Homo sapiens, HepG2, 48 h, read-out: In vitro IC50 (nM) Mean ± SD HepG-2; for In vitro IC50 (nM) Mean ± SD HepG-2: MTT, 48 h, n = 3. A general note: Tetrazolium dyes change colour on reduction, which living cells bring about.

In assay [3] the test system is breast cancer (MCF-7) cell line. The assay is described as follows: In vitro anti-proliferative activity, MTT assay, MCF-7. Type of assay: cell-based, human. Conditions: for IC50: Homo sapiens, MCF7, 48 h, read-out: In vitro IC50 (nM) Mean ± SD MCF-7, MTT, 48 h, mean ± SD, n = 3; for In vitro IC50 (nM) Mean ± SD MCF-7: MTT, 48 h, n = 3.
Assay [4] has as its system colorectal carcinoma (HCT-116) cell line. The experiment in a line: In vitro anti-proliferative activity, MTT assay, HCT-116. The class given is cell-based, human. Conditions: 48 h, n = 3.

As a reminder, the IC50 is the midpoint of a concentration-inhibition curve.

Turning to `N#CCSc1nc2c3cnn(C(=O)CNc4ccc(F)cc4)c3ncn2n1` [Compound 8, 2-((7-((4-Fluorophenyl)glycyl)-7H-pyrazolo[4,3-e][1,2,4]triazolo[1,5-c]pyrimidin-2-yl)thio)acetonitrile], the IC50 in assay [1] stood at 1060 ± 59 nM; in assay [2] it was 8 ± 0.34 nM; in assay [3], 72 ± 0.53 nM. The “In vitro IC50 (nM) Mean ± SD HepG-2” value in assay [2] was “potent activity”.

As for `CC(=O)OCCSc1nc2c3cnn(C(=O)CNc4ccc(F)cc4)c3ncn2n1` [Compound 13, 2-((7-((4-Fluorophenyl)glycyl)-7H-pyrazolo[4,3-e][1,2,4]triazolo[1,5-c]pyrimidin-2-yl)thio)ethyl acetate], in assay [1], it took 130 ± 7 nM to reach half-maximal inhibition (IC50). Further, in assay [2], the IC50 stood at 74 ± 1.1 nM and the “In vitro IC50 (nM) Mean ± SD HepG-2” value was “moderate activity”. For the same compound, the “In vitro IC50 (nM) Mean ± SD HCT-116” value in assay [4] is “most potent cytotoxic results”. In addition, in assay [3], the IC50 turned out to be 55 ± 0.43 nM and the “In vitro IC50 (nM) Mean ± SD MCF-7” value is reported as “good activity”.

On to `N=c1c2cnn(C(=O)CNc3ccc(F)cc3)c2ncn1N` [Compound 4, 1-(5-Amino-4-imino-4,5-dihydro-1H-pyrazolo[3,4-d]pyrimidin-1-yl)-2-((4-fluorophenyl)amino)ethan-1-one], for which the IC50 in assay [1] was found to be 1340 ± 21 nM; in assay [2] it was 603 ± 1.9 nM; in assay [3], 150 ± 1.5 nM.

In the case of `O=C(CNc1ccc(F)cc1)n1ncc2c1ncn1nc(SCCO)nc21` [Compound 12, 1-(2-((2-Hydroxyethyl)thio)-7H-pyrazolo[4,3-e][1,2,4]triazolo[1,5-c]pyrimidin-7-yl)-2-((4-fluorophenyl)amino)ethan-1-one], half-maximal inhibition in assay [1] (IC50) required 961 ± 19 nM. In addition, in assay [2], the IC50 turned out to be 928 ± 0.97 nM and the “In vitro IC50 (nM) Mean ± SD HepG-2” value is “inactive”. Also, in assay [4], the “In vitro IC50 (nM) Mean ± SD HCT-116” value is “inactive”. Further, in assay [3], the IC50 came to 613 ± 0.33 nM and the “In vitro IC50 (nM) Mean ± SD MCF-7” value was “inactive”.

`COC(CSc1nc2c3cnn(C(=O)CNc4ccc(F)cc4)c3ncn2n1)OC` [Compound 9, 1-(2-((2,2-Dimethoxyethyl)thio)-7H-pyrazolo[4,3-e][1,2,4]triazolo[1,5-c]pyrimidin-7-yl)-2-((4-fluorophenyl)amino)ethan-1-one]: the IC50 in assay [1] was determined as 881 ± 49 nM; in assay [2], 690 ± 1.6 nM; in assay [3] it was 60 ± 0.49 nM. For the same compound, the “In vitro IC50 (nM) Mean ± SD HepG-2” value in assay [2] is recorded as “no activity”.

Take `N=c1c2cnn(C(=O)CNc3ccc(F)cc3)c2ncn1N[C@@H]1O[C@H](CO)[C@@H](O)[C@H](O)[C@H]1O` [Compound 5, 1-(4-Imino-5-((ß-D-glucopyranosyl)amino)-4,5-dihydro-1H-pyrazolo[3,4-d]pyrimidin-1-yl)-2-((4-fluorophenyl)amino)ethan-1-one]: the IC50 in assay [1] was 2050 ± 50 nM; in assay [2], 690 ± 0.48 nM; in assay [3] it was 663 ± 1.4 nM.

Regarding `O=C(CNc1ccc(F)cc1)n1ncc2c1ncn1[nH]c(=S)nc21` [Compound 7, 1-(2-Thioxo-2,3-dihydro-7H-pyrazolo[4,3-e][1,2,4]triazolo[1,5-c]pyrimidin-7-yl)-2-((4-fluorophenyl)amino)ethan-1-one], the IC50 in assay [1] worked out at 274 ± 5 nM; in assay [2], 63 ± 0.11 nM; in assay [3], 937 ± 0.93 nM. In addition, the “In vitro IC50 (nM) Mean ± SD HepG-2” value in assay [2] is “moderate activity”.

With `CC(=O)OCC(CSc1nc2c3cnn(C(=O)CNc4ccc(F)cc4)c3ncn2n1)OC(C)=O` (stereo not drawn) [Compound 11, 3-((7-((4-Fluorophenyl)glycyl)-7H-pyrazolo[4,3-e][1,2,4]triazolo[1,5-c]pyrimidin-2-yl)thio)propane-1,2-diyl diacetate], the concentration for half-maximal inhibition (IC50) is 89 ± 5 nM in assay [1], 49 ± 0.17 nM in assay [2] and 63 ± 1.1 nM in assay [3]. The “In vitro IC50 (nM) Mean ± SD HepG-2” value in assay [2] was “moderate activity”. Besides, in assay [4], the “In vitro IC50 (nM) Mean ± SD HCT-116” value is given as “most potent cytotoxic results”. Further, in assay [3], the “In vitro IC50 (nM) Mean ± SD MCF-7” value was “good activity”.

In the case of `CNC(=O)c1cc(Oc2ccc(NC(=O)Nc3ccc(Cl)c(C(F)(F)F)c3)cc2)ccn1` [Sorafenib, reference compound], the IC50 in assay [2] stood at 19 ± 0.29 nM; in assay [3], 144 ± 0.47 nM.

For the compound `O=C(CNc1ccc(F)cc1)n1ncc2c1ncn1nc(SCC(O)CO)nc21` (stereo not drawn) [Compound 10, 1-{2-[(2,3-Dihydroxypropyl)thio]-7H-pyrazolo[4,3-e][1,2,4]triazolo[1,5-c]pyrimidin-7-yl}-2-((4-fluorophenyl)amino)ethan-1-one], the half-maximal inhibitory concentration (IC50) was 506 ± 11 nM in assay [1], 987 ± 2 nM in assay [2] and 95 ± 1.9 nM in assay [3]. The “In vitro IC50 (nM) Mean ± SD MCF-7” value in assay [3] is given as “potent activity”.

As for `N=c1c2cnn(C(=O)CNc3ccc(F)cc3)c2ncn1N[C@@H]1OC[C@@H](O)[C@H](O)[C@H]1O` [Compound 6, 1-(4-Imino-5-((ß-D-xylopyranosyl)amino)-4,5-dihydro-1H-pyrazolo[3,4-d]pyrimidin-1-yl)-2-((4-fluorophenyl)amino)ethan-1-one], the results for the IC50 in assay [1], in assay [2] and in assay [3] were 559 ± 13 nM, 98 ± 0.78 nM and 621 ± 2.7 nM, respectively.

For the origin of these results see paper PMC9278437 (Journal of Enzyme Inhibition and Medicinal Chemistry, 2022).
